Assay results from article PMC6858373 (Scientific Reports, 2019).
Counter-ions that a name gives are not always drawn. Like-named read-outs stand apart in the source and are kept apart here.

What was measured:
Clone V cells = settings: human
in vitro = settings: human
[1] = target: T1, FGF14:Nav1.6 C-tail complex (Homo sapiens, UniProt Q92915+Q9UQD0); test: Split-luciferase complementation assay (LCA) in Clone V double stable HEK293 cells; type: cell-based; settings: for Split Luciferase Assay Z-score Set 1 / Split Luciferase Assay Z-score Set 2 / Split Luciferase Assay %Lum Set 2 / Split Luciferase Assay % Lum Set 1: CC_NCI screening; for Split Luciferase Assay Z-score Set 1 / Split Luciferase Assay % Lum Set 1: biological replicate Set 1; for Split Luciferase Assay Z-score Set 1 / Split Luciferase Assay Z-score Set 2: normalized to on-plate 0.3% DMSO controls; for Split Luciferase Assay Z-score Set 2 / Split Luciferase Assay %Lum Set 2: biological replicate Set 2; for Split Luciferase Assay %Lum Set 2 / Split Luciferase Assay % Lum Set 1: normalized to on-plate 0.3% DMSO controls (n=16 per plate); for Split Luciferase Assay %Lum Avg: average of Set 1 and Set 2, normalized to 0.3% DMSO controls; for Z-score (LCA primary screening): 30 µM, average of primary screening (n = 2), vs on-plate 0.3% DMSO
T1 construct: polymerase chain reaction (PCR) amplification of the FGF14 open reading frame (nt 1–855); C-terminal fragment of Nav1.6 (amino acids 1763–1976) fused with CD4ΔC-tail (amino acids 1–395); expressed in transfected cells
T1 sequence (Q92915 1-252 isoform Q92915-2): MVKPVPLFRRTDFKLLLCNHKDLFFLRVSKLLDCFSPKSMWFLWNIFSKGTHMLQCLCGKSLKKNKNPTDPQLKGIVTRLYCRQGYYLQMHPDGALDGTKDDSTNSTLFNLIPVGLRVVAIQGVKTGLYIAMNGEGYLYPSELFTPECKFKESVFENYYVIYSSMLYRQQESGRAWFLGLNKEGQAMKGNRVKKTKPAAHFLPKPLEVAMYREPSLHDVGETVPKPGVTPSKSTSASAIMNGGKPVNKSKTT
T1 sequence (Q9UQD0 1763-1976 limits assumed): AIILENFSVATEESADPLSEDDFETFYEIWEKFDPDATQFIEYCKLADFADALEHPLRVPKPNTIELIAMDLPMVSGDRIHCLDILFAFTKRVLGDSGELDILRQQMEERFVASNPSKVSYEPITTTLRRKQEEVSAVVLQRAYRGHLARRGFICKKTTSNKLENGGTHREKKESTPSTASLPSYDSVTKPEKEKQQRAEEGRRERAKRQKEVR

[2] = target: full-length P. pyralis luciferase (Photinus pyralis, UniProt P08659, K549A/L550V/N119G/N50D/S548I); type: cell-based
Sequence of full-length P. pyralis luciferase (P08659 whole entry N50D/N119G/S548I/K549A/L550V, looked up): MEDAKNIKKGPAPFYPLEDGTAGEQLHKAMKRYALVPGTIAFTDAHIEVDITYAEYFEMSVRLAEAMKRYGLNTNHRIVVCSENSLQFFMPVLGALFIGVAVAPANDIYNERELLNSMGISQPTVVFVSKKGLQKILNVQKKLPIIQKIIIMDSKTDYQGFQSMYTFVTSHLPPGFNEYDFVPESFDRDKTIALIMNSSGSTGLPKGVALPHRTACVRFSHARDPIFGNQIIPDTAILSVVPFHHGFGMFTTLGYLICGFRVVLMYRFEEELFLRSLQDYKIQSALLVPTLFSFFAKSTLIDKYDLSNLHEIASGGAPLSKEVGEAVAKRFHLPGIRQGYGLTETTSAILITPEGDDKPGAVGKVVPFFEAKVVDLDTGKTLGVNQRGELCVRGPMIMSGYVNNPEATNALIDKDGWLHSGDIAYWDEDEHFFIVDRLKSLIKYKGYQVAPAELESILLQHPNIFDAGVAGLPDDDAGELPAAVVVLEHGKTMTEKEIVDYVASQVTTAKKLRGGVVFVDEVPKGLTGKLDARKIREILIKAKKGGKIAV

[3] = CC_NCI screening, normalized to on-plate 0.3% DMSO controls

| Compound | Toxicity Assay Z-score (CTB cell viability) (Clone V cells; 16 h, 30 µM) | viability at 16 h, 30 µM (in vitro) [%] | Split Luciferase Assay Z-score Set 1 [1] | Split Luciferase Assay Z-score Set 2 [1] | Split Luciferase Assay %Lum Set 2 [1] [%] | Split Luciferase Assay %Lum Avg [1] [%] | Luciferase Assay % Lum (full-length luciferase counter-screen) [2] [%] | Luciferase Assay Z-score (full-length luciferase counter-screen) [2] | viability at 16 h, 30 µM (in vitro; Clone V cells) [%] | EC50 [1] [µM] | Z-score (LCA primary screening) ([1]; 384-well) | Split Luciferase Assay % Lum Set 1 [1] [%] | EMax (% Luminescence) ([1]; agonists, Clone V cells, 384-well, normalized to DMSO) | Luciferase Assay % Lum (full-length luciferase counter-screen) [2, 3] [%] | Luciferase Assay Z-score (full-length luciferase counter-screen) [2, 3] | Toxicity Assay Z-score (CTB cell viability) (Clone V cells) | viability (in vitro) [%] | IMin (% Luminescence) ([1]; antagonists, Clone V cells, 384-well, normalized to DMSO) | IC50 ([1]; estimated, 8-point dose response 0.25-30 µM, n = 4 per concentration, library compounds, read-out: IC50) [µM] |
| --- | --- | --- | --- | --- | --- | --- | --- | --- | --- | --- | --- | --- | --- | --- | --- | --- | --- | --- | --- |
| CN(C)/N=N/c1[nH]cnc1C(N)=O [Dacarbazine] | 0.82 | 106 | 3.01 | 2.70 | 133.16 | 135.23 | 99.29 | -0.09 |  |  |  |  |  |  |  |  |  |  |  |
| Nc1ncn([C@H]2C[C@H](O)[C@@H](CO)O2)c(=O)n1 [Decitabine, reference compound] | 0.87 |  | 6.88 | 7.95 | 197.66 | 191.40 |  |  | 106 | 28.8 | 7.41 | 185.13 | 191.40 | 110.67 | 1.37 |  |  |  |  |
| C[C@@H](CN1CC(=O)NC(=O)C1)N1CC(=O)NC(=O)C1 [Dexrazoxane] | 2.09 | 115 | 1.26 | 1.51 | 118.60 | 117.08 | 109.07 | 1.16 |  |  |  | 115.56 |  |  |  |  |  |  |  |
| C#Cc1cccc(Nc2ncnc3cc(OCCOC)c(OCCOC)cc23)c1 [ERLOTINIB] | 0.46 |  | -0.76 | -1.53 | 81.14 | 85.85 |  |  | 103 |  |  | 90.56 |  | 80.96 | -2.44 |  |  |  |  |
| O=c1[nH]cc(F)c(=O)[nH]1 [Fluorouracil] | 0.61 | 104 | 0.64 | 1.34 | 116.51 | 112.23 |  |  |  |  |  | 107.95 |  | 111.63 | 1.49 |  |  |  |  |
| CS(=O)(=O)c1ccc(C(=O)Nc2ccc(Cl)c(-c3ccccn3)c2)c(Cl)c1 [GDC-0449] | 0.95 | 107 | 3.10 | 2.02 | 124.84 | 131.61 |  |  |  |  |  |  |  | 95.45 | -0.58 |  |  |  |  |
| Nc1ccn([C@@H]2O[C@H](CO)[C@@H](O)C2(F)F)c(=O)n1 [Gemcitabine hydrochloride] | 2.40 |  | 0.29 | -0.43 | 94.67 | 99.13 |  |  | 117 |  |  | 103.60 |  | 102.42 | 0.31 |  |  |  |  |
| COc1cc(O)c2c(c1)[C@H]1O[C@@H]1C[C@H](O)[C@H](O)C(=O)/C=C\C[C@H](C)OC2=O [HYPOTHEMYCIN] |  |  | -3.75 | -4.16 | 48.89 | 51.24 |  |  |  |  |  | 53.59 |  | 72.32 | -3.54 | 0.42 | 103 |  |  |
| CC(=O)[C@]1(O)Cc2c(O)c3c(c(O)c2[C@@H](O[C@H]2C[C@H](N)[C@H](O)[C@H](C)O2)C1)C(=O)c1ccccc1C3=O [Idarubicin hydrochloride] | 1.79 |  | 0.12 | -0.69 | 91.55 | 96.49 |  |  | 113 |  |  | 101.43 |  | 114.41 | 1.85 |  |  |  |  |
| O=P1(NCCCl)OCCCN1CCCl (stereo not shown) [Ifosfamide] |  |  | 1.26 | -0.01 | 99.87 | 107.71 |  |  |  |  |  | 115.56 |  | 96.59 | -0.44 | 0.82 | 106 |  |  |
| CC(C)Cn1cnc2c(N)nc3ccccc3c21 [Imiquimod] | 1.03 | 107 | 1.35 | 1.01 | 112.35 | 114.50 |  |  |  |  |  | 116.65 |  | 104.72 | 0.60 |  |  |  |  |
| Cc1[nH]c2ccccc2c1CCNCc1ccc(/C=C/C(=O)NO)cc1 [LBH-589] | 0.78 |  | -1.99 | -0.18 | 97.79 | 86.56 |  |  | 106 |  |  | 75.34 |  | 101.54 | 0.20 |  |  |  |  |
| O=c1cc(N2CCOCC2)oc2c(-c3ccccc3)cccc12 [LY 294002] | -0.14 | 99 | -0.94 | -1.87 | 76.98 | 82.68 |  |  |  |  |  | 88.38 |  | 80.46 | -2.50 |  |  |  |  |
| CN(C)C[C@@H]1CCn2cc(c3ccccc32)C2=C(C(=O)NC2=O)c2cn(c3ccccc23)CCO1 [LY 333531, reference compound] | 0.14 | 101 | -4.72 | -5.94 | 27.05 | 34.34 |  |  |  |  | −5.33 | 41.64 |  | 78.46 | -2.76 |  |  | 34.34 | 12.2 |
